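Briefly, cells in 96-well plates were exposed to five compound concentrations for 48 h, and endpoints were estimated by linear interpolation. The concentration for 50% growth inhibition is given as GI50.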 Active and inactive are the calls of the source. No stated cut-off is given here; in the data, active = GI50 up to about 1.1 µM and inactive = higher.
Experiments:
Assay in all cases: DTP human tumour cell line panel, 48 h
SF-539 = test system: SF-539
UACC-62 = test system: UACC-62
UACC-257 = test system: UACC-257
A549 = test system: A549
HCT-15 = test system: HCT-15
RXF 393 = test system: RXF 393
HCT-116 = test system: HCT-116
HOP-62 = test system: HOP-62
OVCAR-8 = test system: OVCAR-8
SK-MEL-28 = test system: SK-MEL-28
XF498 = test system: XF498
SK-MEL-2 = test system: SK-MEL-2
OVCAR-3 = test system: OVCAR-3
HOP-92 = test system: HOP-92
SN12C = test system: SN12C
EKVX = test system: EKVX
SK-MEL-5 = test system: SK-MEL-5
SF-295 = test system: SF-295
KM-20L2 = test system: KM-20L2
DMS-273 = test system: DMS-273
CAKI-1 = test system: CAKI-1
SNB-19 = test system: SNB-19
Malme-3M = test system: Malme-3M
IGROV-1 = test system: IGROV-1
COLO 205 = test system: COLO 205
DMS-114 = test system: DMS-114
ACHN = test system: ACHN
NCI-H460 = test system: NCI-H460
SW-620 = test system: SW-620
LOX IMVI = test system: LOX IMVI
SNB-78 = test system: SNB-78
SF-268 = test system: SF-268
OVCAR-4 = test system: OVCAR-4
HOP-18 = test system: HOP-18
NCI-H23 = test system: NCI-H23
NCI-H226 = test system: NCI-H226
OVCAR-5 = test system: OVCAR-5
TK-10 = test system: TK-10
DLD-1 = test system: DLD-1
A498 = test system: A498
U-251 = test system: U-251
KM12 = test system: KM12
786-0 = test system: 786-0
SR = test system: SR
K562 = test system: K562
NCI-H522 = test system: NCI-H522
HL-60 = test system: HL-60
SK-OV-3 = test system: SK-OV-3
CCRF-CEM = test system: CCRF-CEM
M14 = test system: M14
M19-MEL = test system: M19-MEL
SNB-75 = test system: SNB-75
LXFL 529 = test system: LXFL 529
MOLT-4 = test system: MOLT-4
UO-31 = test system: UO-31
HCC 2998 = test system: HCC 2998
HT-29 = test system: HT-29
RPMI-8226 = test system: RPMI-8226
NCI/ADR-RES = test system: NCI/ADR-RES
MCF7 = test system: MCF7

Measured: GI50

CCCCCOCC(O)CO (stereo not drawn)
inactive: SF-539 > 100 µM | UACC-62 > 100 µM | UACC-257 > 100 µM | A549 > 100 µM | RXF 393 > 100 µM | HCT-116 > 100 µM | HOP-62 > 100 µM | OVCAR-8 > 100 µM | SK-MEL-28 > 100 µM | XF498 44.6 µM | SK-MEL-2 > 100 µM | OVCAR-3 > 100 µM | HOP-92 > 100 µM | SN12C > 100 µM | EKVX > 100 µM | SK-MEL-5 > 100 µM | SF-295 > 100 µM | KM-20L2 > 100 µM | DMS-273 > 100 µM | CAKI-1 > 100 µM | SNB-19 > 100 µM | Malme-3M > 100 µM | IGROV-1 > 100 µM | COLO 205 > 100 µM | DMS-114 > 100 µM | ACHN > 100 µM | NCI-H460 > 100 µM | SW-620 > 100 µM | LOX IMVI > 100 µM | SNB-78 > 100 µM | SF-268 > 100 µM | OVCAR-4 > 100 µM | HOP-18 > 100 µM | NCI-H23 > 100 µM | NCI-H226 > 100 µM | OVCAR-5 > 100 µM | TK-10 > 100 µM | DLD-1 > 100 µM | A498 > 100 µM | U-251 > 100 µM | KM12 > 100 µM | 786-0 > 100 µM
> 100 µM: HCT-15

CC(C)(O)C(O)COc1c2c(cc3oc(=O)ccc13)OCO2 (stereo not drawn)
inactive: SF-539 > 100 µM | UACC-62 > 100 µM | SR > 100 µM | K562 > 100 µM | UACC-257 > 100 µM | A549 > 100 µM | RXF 393 > 100 µM | NCI-H522 > 100 µM | HCT-116 > 100 µM | HOP-62 > 100 µM | OVCAR-8 > 100 µM | SK-MEL-28 > 100 µM | XF498 > 100 µM | SK-MEL-2 > 100 µM | OVCAR-3 > 100 µM | HOP-92 > 100 µM | HL-60 > 100 µM | SN12C > 100 µM | EKVX > 100 µM | SK-MEL-5 > 100 µM | SK-OV-3 > 100 µM | SF-295 > 100 µM | CCRF-CEM > 100 µM | KM-20L2 > 100 µM | DMS-273 > 100 µM | M14 > 100 µM | CAKI-1 > 100 µM | SNB-19 > 100 µM | Malme-3M > 100 µM | IGROV-1 > 100 µM | M19-MEL > 100 µM | COLO 205 > 100 µM | DMS-114 > 100 µM | SNB-75 71.9 µM | ACHN > 100 µM | NCI-H460 > 100 µM | LXFL 529 > 100 µM | MOLT-4 > 100 µM | SW-620 > 100 µM | LOX IMVI > 100 µM | UO-31 > 100 µM | HCC 2998 > 100 µM | HT-29 > 100 µM | SF-268 > 100 µM | OVCAR-4 > 100 µM | HOP-18 > 100 µM | NCI-H23 > 100 µM | RPMI-8226 > 100 µM | NCI-H226 > 100 µM | OVCAR-5 > 100 µM | TK-10 > 100 µM | DLD-1 > 100 µM | A498 > 100 µM | U-251 > 100 µM | KM12 > 100 µM | 786-0 > 100 µM
> 100 µM: HCT-15

CCCCCCCCCCCCCCCCSCC(COC)COP(=O)([O-])OCC[N+](C)(C)C (stereo not drawn) [ILMOFOSINE]
2.88 µM: HCT-15
inactive: SF-539 16.1 µM | UACC-62 4.92 µM | K562 13.6 µM | UACC-257 14.3 µM | A549 7.21 µM | RXF 393 3.52 µM | NCI-H522 2.34 µM | HCT-116 6.76 µM | HOP-62 3.43 µM | OVCAR-8 9.06 µM | SK-MEL-28 15.5 µM | NCI/ADR-RES 16.5 µM | XF498 6.3 µM | SK-MEL-2 15.5 µM | OVCAR-3 5.38 µM | HOP-92 2.26 µM | HL-60 1.55 µM | SN12C 3.24 µM | EKVX 14.4 µM | SK-MEL-5 12.7 µM | SK-OV-3 15.2 µM | SF-295 2.49 µM | MCF7 13.2 µM | CCRF-CEM 2.9 µM | DMS-273 1.85 µM | CAKI-1 3.52 µM | SNB-19 4.3 µM | Malme-3M 15.5 µM | IGROV-1 1.85 µM | M19-MEL 2.79 µM | COLO 205 1.97 µM | DMS-114 7.5 µM | SNB-75 3.31 µM | NCI-H460 2.5 µM | MOLT-4 2.41 µM | SW-620 5.78 µM | LOX IMVI 5.41 µM | SNB-78 10.2 µM | UO-31 7.69 µM | HCC 2998 1.52 µM | HT-29 3.09 µM | SF-268 7.57 µM | OVCAR-4 4.06 µM | HOP-18 4.12 µM | NCI-H23 13.6 µM | RPMI-8226 2.49 µM | NCI-H226 3.72 µM | OVCAR-5 13.3 µM | DLD-1 3.03 µM | A498 6.31 µM | U-251 1.99 µM
active: KM12 0.977 µM
